Assay results reported in PubChem BioAssay (NCI).
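The compound was tested at five concentrations on cells cultured in 96-well plates, with a 48-hour exposure period. TGI denotes the concentration required for complete inhibition of growth.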

Legend:
Assay in all cases: inhibition of tumour cell growth, NCI panel, 48 h
786-0 renal = system: 786-0 renal
A498 renal = system: A498 renal
HS 578T breast = system: HS 578T breast
IGROV1 ovarian = system: IGROV1 ovarian
MALME-3M melanoma = system: MALME-3M melanoma
OVCAR-3 ovarian = system: OVCAR-3 ovarian
PC-3 prostate = system: PC-3 prostate
SF-295 CNS = system: SF-295 CNS
SN12C renal = system: SN12C renal
SW-620 colon = system: SW-620 colon
T-47D breast = system: T-47D breast
TK-10 renal = system: TK-10 renal
U251 CNS = system: U251 CNS
UACC-257 melanoma = system: UACC-257 melanoma
UACC-62 melanoma = system: UACC-62 melanoma

SMILES	TGI (786-0 renal) [µM]	TGI (A498 renal) [µM]	TGI (HS 578T breast) [µM]	TGI (IGROV1 ovarian) [µM]	TGI (MALME-3M melanoma) [µM]	TGI (OVCAR-3 ovarian) [µM]	TGI (PC-3 prostate) [µM]	TGI (SF-295 CNS) [µM]	TGI (SN12C renal) [µM]	TGI (SW-620 colon) [µM]	TGI (T-47D breast) [µM]	TGI (TK-10 renal) [µM]	TGI (U251 CNS) [µM]	TGI (UACC-257 melanoma) [µM]	TGI (UACC-62 melanoma) [µM]
Cc1cc(O)c2c(c1)C(=O)C=C(Br)C2=O	31.3	38.2	35.6	> 60.2	17.2	30.6	31.8	> 60.5	31	12.2	14.9	30.1	95.1	26.5	32.4
CSc1ncc2c(C#N)c3ccccn3c(=O)c2n1	> 100	> 100	> 100	> 100	> 100	> 100	> 100	> 100	> 100	> 100	> 100	> 100	> 100	> 100	> 100
O=CN1CCN(C(=O)c2ccc(Cl)cc2)C1=S	19.7	29.3	> 100	28.5	41.8	28.7	32.1	76	28	36.5	36.4	28.2	28.2	33.7	29.3
COC(=O)CCN1CCN(CCO)CC1C (stereo not given)	> 10	> 10	> 10	> 10	> 10	> 10	> 10	> 10	> 10	> 10	> 10	> 10	> 10	> 10	> 10
CC(=O)OCC1=C2C(OC(=O)C(C)C)CC3(COC(C)=O)OC3/C=C\C3(C)OC3C2OC1=O (stereo not given)	> 100	> 100	> 100	> 100	> 100	> 100	> 100	> 100	> 100	> 100	> 100	> 100	> 100	> 100	> 100
Nc1cccc(/C=C/CN2CCN(CCOC(c3ccccc3)c3ccccc3)CC2)c1	30.5	32.5	48	30.1	34.7	29.1	30	31.4	36	33.9	26	29.6	30.5	31.1	31.7
Cc1ccc(C)c(NC(=O)/C(=N\N)C(c2cnc3ccc([N+](=O)[O-])cc3n2)[N+](=O)[O-])c1 (stereo not given)	> 100	> 100	> 100	> 100	> 100	> 100	> 100	> 100	> 100	> 100	> 100	> 100	> 100	> 100	> 100
CC(=O)c1c2c(cc3c1CC1(C3)Cc3ccc4c(c3C1=O)CCC4)CCC2 (stereo not given)	> 100	> 100	> 100	> 100	> 100	> 100	> 100	> 100	> 100	> 100	> 100	> 100	> 100	14.9	> 100
CC(C)CNC(=O)c1c(NC(=O)c2ccccc2)sc2[nH]c(=O)n(-c3ccccc3)c(=O)c12	53.6	> 71.2	> 79.1	> 100	> 100	> 100	> 100	67.1	> 100	> 100	> 100	75	> 100	> 100	> 100
C[C@]12CC[C@H]3[C@@H](CC=C4C[C@@H](O)CC[C@@]43C)[C@@H]1C[C@H](N1CCOCC1)[C@@H]2O	> 100	> 100	> 100	> 100	> 100	> 100	> 100	> 100	> 100	> 100	> 100	> 100	> 100	> 100	> 100
O=C1NC(=O)/C(=C/c2ccc(S(=O)(=O)N/N=C/c3ccccc3)cc2)N1	> 100	> 100	> 100	> 100	> 100	> 100	> 100	> 100	> 100	> 100	> 100	> 100	> 100	> 100	> 100
CC1(C)CC(=O)C(CC2C(=O)c3ccccc3C2=O)C(=O)C1C(=O)C(=O)Nc1cccc2ccc(O)cc12 (stereo not given)	> 100	69.8	> 100	> 100	> 100	> 100	> 100	> 100	> 100	> 100	> 100	> 100	> 100	> 100	> 100
c1ccc(-c2sc(-c3ccccc3)c3c2C2CCC3C2)cc1	> 100	> 100	70.6	> 100	> 100	> 100	72.6	> 100	> 100	> 100	> 100	89.7	> 100	> 100	> 100
CN1C(=O)CN=C(c2ccccc2F)c2cc(N=C=S)ccc21	> 100	> 100	> 100	> 100	> 100	> 100	> 100	> 100	> 100	> 100	> 100	> 100	> 100	> 100	> 100
CCOC(=O)CCC(NC(=O)c1ccc(OCc2ccc3nc(OC)c(OC)nc3c2)cc1)C(=O)OCC (stereo not given)	> 100	> 100	> 100	> 100	69.2	49.9	> 100	> 100	> 100	> 100	> 100	> 100	> 100	> 100	> 100
CC1C2CC(CC2O)C1(C)C (stereo not given)	> 100	> 100	> 100	> 100	> 100	> 100	> 100	> 100	> 100	> 100	> 100	> 100	> 100	> 100	> 100
C=CCC1(O)C(=O)OC2C(O)COC21O (stereo not given)	> 100	> 100	> 100	> 100	> 100	> 100	> 100	> 100	> 100	> 100	> 100	> 100	> 100	> 100	> 100
Cc1cc(CN(Cc2ccccc2)Cc2nc3ccccc3[nH]2)c(O)c(CN(Cc2nc3ccccc3[nH]2)Cc2nc3ccccc3[nH]2)c1	73.4	> 48.6	> 100	> 93.2	> 93.2	63.5	60.6	> 61.6	> 100	> 100	> 69.5	> 67.9	> 100	23.1	18.5
CC1=C(S(=O)c2ccc(C)cc2)CCC2(CCCCO2)O1 (stereo not given)	> 100	> 100	> 100	> 100	> 100	> 100	> 100	> 100	> 100	> 100	> 100	> 100	> 100	> 100	> 100
